In the supplement of paper PMC10307832:

Assays:
Experiment in all cases: relative viability (nuclei count vs DMSO), 5 days (fraction); higher = more cells survive
201T = system: 201T
How it was run: (§1)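 One day after seeding in 1536-well plates, lung cancer cell lines were dosed by pin tool. Dosing was either single-drug or a fixed anchor-drug dose plus five library-drug doses (not always all listed) in √10 steps. After 5 days, nuclei were stained in one fix-and-stain step and counted on 4× images, and relative viability is the nuclei count of treated wells over that of vehicle wells, given as the median of duplicate plates.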

ABC-1 = system: ABC-1
How it was run: as §1

BEN = system: BEN
How it was run: as §1

HCC-366 = system: HCC-366
How it was run: as §1

HCC-44 = system: HCC-44
How it was run: as §1

HCC-78 = system: HCC-78
How it was run: as §1

LK-2 = system: LK-2
How it was run: as §1

LOU-NH91 = system: LOU-NH91
How it was run: as §1

NCI-H1355 = system: NCI-H1355
How it was run: as §1

NCI-H1650 = system: NCI-H1650
How it was run: as §1

NCI-H1666 = system: NCI-H1666
How it was run: as §1

NCI-H1734 = system: NCI-H1734
How it was run: as §1

NCI-H1755 = system: NCI-H1755
How it was run: as §1

NCI-H2009 = system: NCI-H2009
How it was run: as §1

NCI-H2228 = system: NCI-H2228
How it was run: as §1

NCI-H2347 = system: NCI-H2347
How it was run: as §1

NCI-H2405 = system: NCI-H2405
How it was run: as §1

NCI-H358 = system: NCI-H358
How it was run: as §1

NCI-H520 = system: NCI-H520
How it was run: as §1

NCI-H727 = system: NCI-H727
How it was run: as §1

NCI-H838 = system: NCI-H838
How it was run: as §1

SW 1573 = system: SW 1573
How it was run: as §1

UMC-11 = system: UMC-11
How it was run: as §1

O=c1[nH]c2ccccc2n1C1CCN(CCCC(c2ccc(F)cc2)c2ccc(F)cc2)CC1 [Pimozide] + C[C@@H](Oc1cc(-c2cnn(C3CCNCC3)c2)cnc1N)c1c(Cl)ccc(F)c1Cl [Crizotinib] (partner 1 µM)
relative viability (201T; first compound 0.08 µM): 0.995 | relative viability (201T; first compound 0.253 µM): 1 | relative viability (201T; first compound 0.8 µM): 1.03 | relative viability (201T; first compound 2.53 µM): 1.05 | relative viability (201T; first compound 8 µM): 0.964 | relative viability (ABC-1; first compound 0.08 µM): 1.03 | relative viability (ABC-1; first compound 0.253 µM): 0.604 | relative viability (ABC-1; first compound 0.8 µM): 0.783 | relative viability (ABC-1; first compound 2.53 µM): 0.755 | relative viability (ABC-1; first compound 8 µM): 0.606 | relative viability (BEN; first compound 0.08 µM): 1.01 | relative viability (BEN; first compound 0.253 µM): 0.913 | relative viability (BEN; first compound 0.8 µM): 0.846 | relative viability (BEN; first compound 2.53 µM): 0.697 | relative viability (BEN; first compound 8 µM): 0.969 | relative viability (HCC-366; first compound 0.08 µM): 0.574 | relative viability (HCC-366; first compound 0.253 µM): 0.455 | relative viability (HCC-366; first compound 0.8 µM): 0.448 | relative viability (HCC-366; first compound 2.53 µM): 0.503 | relative viability (HCC-366; first compound 8 µM): 0.525 | relative viability (HCC-44; first compound 0.08 µM): 0.73 | relative viability (HCC-44; first compound 0.253 µM): 0.733 | relative viability (HCC-44; first compound 0.8 µM): 0.743 | relative viability (HCC-44; first compound 2.53 µM): 0.829 | relative viability (HCC-44; first compound 8 µM): 0.75 | relative viability (HCC-78; first compound 0.08 µM): 0.263 | relative viability (HCC-78; first compound 0.253 µM): 0.339 | relative viability (HCC-78; first compound 0.8 µM): 0.333 | relative viability (HCC-78; first compound 2.53 µM): 0.354 | relative viability (HCC-78; first compound 8 µM): 0.315 | relative viability (LK-2; first compound 0.08 µM): 0.225 | relative viability (LK-2; first compound 0.253 µM): 0.224 | relative viability (LK-2; first compound 0.8 µM): 0.243 | relative viability (LK-2; first compound 2.53 µM): 0.225 | relative viability (LK-2; first compound 8 µM): 0.234 | relative viability (LOU-NH91; first compound 0.08 µM): 0.52 | relative viability (LOU-NH91; first compound 0.253 µM): 0.733 | relative viability (LOU-NH91; first compound 0.8 µM): 0.73 | relative viability (LOU-NH91; first compound 2.53 µM): 0.759 | relative viability (LOU-NH91; first compound 8 µM): 0.581 | relative viability (NCI-H1355; first compound 0.08 µM): 1.08 | relative viability (NCI-H1355; first compound 0.253 µM): 0.988 | relative viability (NCI-H1355; first compound 0.8 µM): 0.959 | relative viability (NCI-H1355; first compound 2.53 µM): 0.937 | relative viability (NCI-H1355; first compound 8 µM): 1.06 | relative viability (NCI-H1650; first compound 0.08 µM): 0.923 | relative viability (NCI-H1650; first compound 0.253 µM): 0.946 | relative viability (NCI-H1650; first compound 0.8 µM): 0.791 | relative viability (NCI-H1650; first compound 2.53 µM): 0.891 | relative viability (NCI-H1650; first compound 8 µM): 0.835 | relative viability (NCI-H1666; first compound 0.08 µM): 0.882 | relative viability (NCI-H1666; first compound 0.253 µM): 0.913 | relative viability (NCI-H1666; first compound 0.8 µM): 1.02 | relative viability (NCI-H1666; first compound 2.53 µM): 0.751 | relative viability (NCI-H1666; first compound 8 µM): 0.789 | relative viability (NCI-H1734; first compound 0.08 µM): 0.646 | relative viability (NCI-H1734; first compound 0.253 µM): 0.633 | relative viability (NCI-H1734; first compound 0.8 µM): 0.716 | relative viability (NCI-H1734; first compound 2.53 µM): 0.609 | relative viability (NCI-H1734; first compound 8 µM): 0.722 | relative viability (NCI-H1755; first compound 0.08 µM): 0.881 | relative viability (NCI-H1755; first compound 0.253 µM): 0.845 | relative viability (NCI-H1755; first compound 0.8 µM): 0.794 | relative viability (NCI-H1755; first compound 2.53 µM): 0.792 | relative viability (NCI-H1755; first compound 8 µM): 0.697 | relative viability (NCI-H2009; first compound 0.08 µM): 1.02 | relative viability (NCI-H2009; first compound 0.253 µM): 0.995 | relative viability (NCI-H2009; first compound 0.8 µM): 1.09 | relative viability (NCI-H2009; first compound 2.53 µM): 1.01 | relative viability (NCI-H2009; first compound 8 µM): 0.889 | relative viability (NCI-H2228; first compound 0.08 µM): 0.406 | relative viability (NCI-H2228; first compound 0.253 µM): 0.572 | relative viability (NCI-H2228; first compound 0.8 µM): 0.406 | relative viability (NCI-H2228; first compound 2.53 µM): 0.38 | relative viability (NCI-H2228; first compound 8 µM): 0.354 | relative viability (NCI-H2347; first compound 0.08 µM): 0.807 | relative viability (NCI-H2347; first compound 0.253 µM): 0.661 | relative viability (NCI-H2347; first compound 0.8 µM): 0.545 | relative viability (NCI-H2347; first compound 2.53 µM): 0.517 | relative viability (NCI-H2347; first compound 8 µM): 0.51 | relative viability (NCI-H2405; first compound 0.08 µM): 0.831 | relative viability (NCI-H2405; first compound 0.253 µM): 0.814 | relative viability (NCI-H2405; first compound 0.8 µM): 0.83 | relative viability (NCI-H2405; first compound 2.53 µM): 0.819 | relative viability (NCI-H2405; first compound 8 µM): 0.789 | relative viability (NCI-H358; first compound 0.08 µM): 0.573 | relative viability (NCI-H358; first compound 0.253 µM): 0.519 | relative viability (NCI-H358; first compound 0.8 µM): 0.448 | relative viability (NCI-H358; first compound 2.53 µM): 0.335 | relative viability (NCI-H358; first compound 8 µM): 0.546 | relative viability (NCI-H520; first compound 0.08 µM): 0.817 | relative viability (NCI-H520; first compound 0.253 µM): 0.802 | relative viability (NCI-H520; first compound 0.8 µM): 0.702 | relative viability (NCI-H520; first compound 2.53 µM): 0.819 | relative viability (NCI-H520; first compound 8 µM): 0.675 | relative viability (NCI-H727; first compound 0.08 µM): 0.958 | relative viability (NCI-H727; first compound 0.253 µM): 0.791 | relative viability (NCI-H727; first compound 0.8 µM): 0.855 | relative viability (NCI-H727; first compound 2.53 µM): 0.765 | relative viability (NCI-H727; first compound 8 µM): 0.756 | relative viability (NCI-H838; first compound 0.08 µM): 0.855 | relative viability (NCI-H838; first compound 0.253 µM): 0.808 | relative viability (NCI-H838; first compound 0.8 µM): 0.786 | relative viability (NCI-H838; first compound 2.53 µM): 0.774 | relative viability (NCI-H838; first compound 8 µM): 0.955 | relative viability (SW 1573; first compound 0.08 µM): 0.797 | relative viability (SW 1573; first compound 0.253 µM): 0.759 | relative viability (SW 1573; first compound 0.8 µM): 0.803 | relative viability (SW 1573; first compound 2.53 µM): 0.805 | relative viability (SW 1573; first compound 8 µM): 0.779 | relative viability (UMC-11; first compound 0.08 µM): 0.574 | relative viability (UMC-11; first compound 0.253 µM): 0.618 | relative viability (UMC-11; first compound 0.8 µM): 0.634 | relative viability (UMC-11; first compound 2.53 µM): 0.584 | relative viability (UMC-11; first compound 8 µM): 0.705
